Measurements reported in US6703483B1, “Compounds useful in pain management” (Cornell Research Foundation, Inc., priority 1999, dated 2004).

Assays:
[1] = Respiratory depression studies (whole body plethysmography) after i.th. administration; settings: rat; for decrease of minute ventilation: during 3 to 6 hours after administration
Experimental: Whole body plethysmography was performed as described in the literature (K. Tatsumi et al., J. Appl. Physiol. 71, 37-42 (1991)). An unrestrained rat was placed in a 3-liter whole-body plethysmograph chamber and breathed 100% humidified air supplied into and out of the chamber at a rate of 1000 ml/min. After a 15-min acclimation period the inlet and outlet of the chamber were closed and the pressure changes in the box, caused by the warming and wetting of the gas inspired by the rat and the cooling and drying of the expired gas, were recorded using a high-gain differential pressure transducer. A calibration volume of 0.2 ml of air was regularly introduced into the chamber during the recordings. The recordings were made for 20-30 seconds. Subsequently, the inlet and outlet were opened, and the gas supply was changed to a mixture of 5% CO2 and 21% O2 in N2 (100% humidified) and the rat was allowed to breathe the gas mixture for 5 min to reach a steady-state ventilatory condition. The recordings of changes in pressure were repeated with the chamber closed. Tidal volumes were calculated from the pressure changes using the equation derived by J. E. Drorbaugh and W. O. Fenn, Pediatrics 16, 81-87 (1955). Respiratory frequencies were also determined from the number of respiratory cycles in the recordings and minute ventilations were calculated (tidal volume x frequency).
Compounds were administered at a low dose (3×ED50 determined in the analgesic test) and at a high dose (30×ED50).

[2] = In vivo disposition in pregnant sheep (fetal plasma, placental transfer); settings: i.v. infusion to pregnant sheep
Experimental: The in vivo disposition after i.v. administration to pregnant sheep was examined by using procedures described in the literature (H. H. Szeto et al. J. Pharmacol. Exp. Ther. 284. 61-65 (1998)). Chronic indwelling catheters were surgically placed in four pregnant ewes (gestional age, 115-120 days; term ˜145 days) as described by H. H. Szeto et al., Am. J. Physiol. 258, R1453-R1458 (1990). […] The compounds according to the invention were administered as a constant-rate intravenous infusion (0.6 mg/kg/h and 0.06 mg/kg/h, respectively, for 4 h) to the sheep, and blood samples were collected at 0, 1, 2, 3, 3.5, 4, 4.25, 4.5, 5, 6, 7, 12 and 24 h. Blood samples were collected form the fetus at 0, 3, 3.5, 4, 5 and 6 h. All blood samples were collected into chilled borosilicate glass tubes containing EDTA and centrifuged, and the plasma was stored in glass containers with Teflon-lined caps and frozen at −80° C.
The compounds were quantified by using reversed-phase HPLC and MS detection, as described by Grigoriants et al., J. Chromatogr. B, Biomedical Applications 695, 287-298 (1997). […] The filtered plasma sample was chromatographed on an RP-analytical column (Delta Pak, 5 μm, C18, 100 Å, 150×3.9 mm; Waters, Milford, Mass.) at a flow rate of 1.5 ml/min, and UV absorption was monitored at 200 nm. […] Continuous flow-LSIMS was used to quantify DALDA. […]

[3] = Hemodynamic and metabolic effects in the pregnant sheep model; type: in vivo; settings: i.v. infusion 0.6 mg/kg/h and 0.06 mg/kg/h, respectively
Experimental: Using the same instrumented pregnant sheep model described above, DALDA and its analogs were administered by i.v. infusion at a dose of 0.6 mg/kg/h and 0.06 mg/kg/h, respectively. No effect on maternal blood pressure, heart rate, blood gases and plasma glucose were observed. Similarly, neither peptide had any effect on fetal blood pressure, heart rate, blood gases and plasma glucose.

[4] = 2 h after i.th. administration, dose 7.5 μg (32×ED50); cited from earlier work
[5] = biological target: T1, μ receptor (Rattus norvegicus, UniProt P33535); settings: rat brain membranes; cited from earlier work
T1 construct: from tissue; host or cells: rat brain (cerebellum removed) membranes

[6] = system: μ receptors; settings: GPI; cited from earlier work

T1 sequence (P33535 whole entry): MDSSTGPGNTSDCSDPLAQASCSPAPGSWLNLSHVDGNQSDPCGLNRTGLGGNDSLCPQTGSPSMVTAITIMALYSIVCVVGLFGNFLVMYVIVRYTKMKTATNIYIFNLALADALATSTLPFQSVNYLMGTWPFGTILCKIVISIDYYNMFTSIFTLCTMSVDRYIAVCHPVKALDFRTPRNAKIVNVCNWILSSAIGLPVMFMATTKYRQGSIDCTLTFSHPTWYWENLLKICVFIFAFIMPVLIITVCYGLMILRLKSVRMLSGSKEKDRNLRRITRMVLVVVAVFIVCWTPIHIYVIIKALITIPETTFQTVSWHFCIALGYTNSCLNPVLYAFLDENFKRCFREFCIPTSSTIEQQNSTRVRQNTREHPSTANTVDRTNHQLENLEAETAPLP

Compound	decrease of minute ventilation ([1]; high dose (30×ED50))	decrease of minute ventilation ([1]; low dose (3×ED50))	crossing of the placental barrier [2]	effect on maternal blood pressure, heart rate, blood gases and plasma glucose [3]	delayed respiratory depression [4]	μ receptor affinity [5]	μ receptor selectivity [5]	μ agonist potency [6]	decrease of minute ventilation compared to saline control ([1]; low dose (3×ED50) and high dose (30×ED50))
NCCCC[C@H](NC(=O)[C@H](Cc1ccccc1)NC(=O)[C@@H](CCCN=C(N)N)NC(=O)[C@@H](N)Cc1ccc(O)cc1)C(N)=O [DALDA, H-Tyr-D-Arg-Phe-Lys-NH2]	30%	26%	do not cross the placental barrier to a significant extent	No effect	did produce delayed respiratory depression	high μ receptor affinity	excellent μ receptor selectivity	considerable μ agonist potency	
Cc1cc(O)cc(C)c1C[C@H](N)C(=O)N[C@H](CCCNC(=N)N)C(=O)N[C@@H](Cc1ccccc1)C(=O)N[C@@H](CCCCN)C(N)=O [Example 1, H-Dmt-D-Arg-Phe-Lys-NH2]									Neither dose of H-Dmt-D-Arg-Phe-Lys-NH2 significantly decreased minute ventilation
CN1CC[C@]23c4c5ccc(O)c4O[C@H]2[C@@H](O)C=C[C@H]3[C@H]1C5 [morphine]	26%								
